No end group written: not given here.
Legend:
[1] = tested on: mice chronically challenged with BLM; assay: Chronic BLM challenge model (BLM intraperitoneally twice a week for 33 days), treatment with CPP-DPs; type: in vivo, mouse; conditions: for total body weight over time: intraperitoneal three times a week, started after 14 days of challenge
From the text: FIG. 6. Therapeutic effects of CPP-DPs in the chronic BLM challenge model. A. Time course schematic of the chronic BLM challenge model. B. Time-dependent changes in total body weight (mean percent of initial body weight ±SD. Asterisks indicate higher (p<0.05) body weights in CPP-DP-treated compared to PBS control-treated mice. C. Individual collagen levels, μg per mg of wet lung tissue (left), and IL-33 levels, pg per mg of wet lung tissue (right), in lung homogenates from mice treated as indicated. Asterisks indicate lower (p<0.05) levels in BLM-challenged, PBS-treated control mice.
We then considered that such acute model of bleomycin injury, despite its universal use in this field of work, is well known to represent the chronic nature of human pulmonary fibrosis less accurately than the chronic model of systemic BLM delivery. In the chronic model, BLM is injected intraperitoneally twice a week for 33 days, with subsequent assessment of pulmonary changes (FIG. 6A). We challenged mice in this fashion, and, after 14 days such chronic challenge at which point the decline in their total body weight became obvious (FIG. 6B), initiated treatment with CPP-DP5, CPP-DP10, or PBS injected intraperitoneally three times a week (FIG. 6A). […] Of note, such therapy with CPP-DP5 was efficacious despite the continued challenge with repeated administration of BLM (FIG. 6A).

[2] = tested on: mice challenged intratracheally with a single dose bleomycin (BLM); assay: Acute BLM challenge model (intratracheal 0.08 U BLM), therapeutic regimen with CPP-DPs; type: in vivo, mouse; conditions: for collagen accumulation in lung / pulmonary IL-33 accumulation: end of 3 weeks, vs PBS-treated animals; for total body weight over time: intraperitoneal once a day from day 8 for 2 weeks, vs BLM-challenged, PBS-treated mice
From the text: FIG. 5. Therapeutic effects of CPP-DPs in the acute BLM challenge model. A. Time course schematic of the acute BLM challenge model. […] Data in panels B and C were pooled data from separate 3 experiments.
To test the ability of these peptides to deplete the levels of IL-33 in vivo and to assess their ability to modulate the degree of pulmonary fibrosis, these peptides were synthesized, HPLC-purified, and tested in the therapeutic regimen in mice challenged intratracheally with a single dose bleomycin (BLM). In this acute BLM challenge mode, mice received intratracheal 0.08 U of BLM or an equal volume phosphate-buffered saline (PBS) control and allowed to respond to such injury for a week without any intervention. On day 8, intraperitoneal administrations of CPP-DPs once a day were started and continued for 2 weeks. In the end of the 3 weeks, mice have been euthanized, lungs extracted, and pulmonary levels of IL-33 and collagen measured.

[3] = tested on: Wild-type C57BL/6 mice challenged with BLM; assay: Acute BLM model in vivo (single intratracheal 0.075 U BLM), therapeutic regimen with Series 2 peptides; set-up: species or system mouse; conditions: for pulmonary levels of IL-33 (ELISA, lung homogenates) / total lung collagen (QuickZyme assay): 10 nmol/g intraperitoneal daily on days 5-13, day 14; for signs of toxicity (ruffled fur, hunched posture, reduced mobility, diarrhea, weight lost, tachypnea) / therapeutic effect against fibrosis: acute BLM injury model; for signs of toxicity (ruffled fur, hunched posture, reduced mobility, diarrhea, weight lost, tachypnea): in vivo; for therapeutic effect against fibrosis: therapeutic mode
From the text: FIG. 2. Design of decoy peptides in Series 2 (A), the effects of peptides 2-5 and 2-10 on pulmonary levels of IL-33 (B, D), and collagen (C, D) proteins in the acute BLM model in vivo. In panels B and D, mean ±SD values are shown. […] Wild-type C57BL/6 mice were challenged with a single intratracheal instillation of 0.075 U of BLM or PBS vehicle, and the disease was allowed to evolve for 5 days. On days 5-13, mice received daily intraperitoneal injections of 10 nmol/g of peptides 2-5 or 2-10, or PBS vehicle. Mice were euthanized on day 14, and IL-33 levels measured by ELISA in lung homogenates, whereas total lung collagen was measured using QuickZyme assays.
(§1) We propose development of a new IL-33 attenuating therapy based on CPP-DP-based strategy. […] In each peptide 1-1 and 1-2, the CPP penetratin was N-terminally fused to the DP. The final sequences of peptides 1-1 and 1-2 were […] (SEQ ID NO:69) and ROIKIWFONRRMKWKKFRRETTKRPSLKTG (SEQ ID NO:70), respectively, with the CPP portion shown in italic and the DP portions underlined. Primary fibroblasts were electroporated with FLIL33-encoding and, separately, control non-coding vehicle (NULL) plasmids, and, after 24 h, the medium was replaced with added peptides 1-1 or 1-2. Based on our experience with CPP-DPs, initial concentrations of 20 μM and 40 μM were tested. After an additional 24 h, cells were lysed and the lysates were analyzed for the levels of IL-33 by ELISA. […] The most likely explanation for this effect is based on our previous experience of depleting IPOS with CRISPR-Cas9, AdV-shRNA, and siRNA technologies (Clerman et al., J Biol Chem. (2017). 292:21653-61: Kopach et al., J Biol Chem. (2014). 289:11829-43). We previously observed that a complete or nearly complete depletion of IPO5 using these methodologies quickly leads to cell death, whereas substantial yet incomplete depletion of IPO5 levels abrogates FLIL33 without affecting cell viability. We argue that peptide 1-1 is “too effective” in binding IPO5, thus competing for it not only with FLIL33 but also with other critical molecular partners, and ultimately impeding on cell survival. We then undertook a more rigorous, unbiased approach, based on the following considerations. As stated above in relation to Example 1, there are possible multiple other regions in the N-terminal portion of FLIL33 that control its stability, subcellular localization, secretion, maturation, and functional binding of intracellular molecular partners. Targeting by DPs needs to cover the entire N-terminal part of FLIL33 and be performed in a systematic fashion, and the data integrated with the observations in Examples 1 and 2. […] We began by designing Series 2 of overlapping DPs that together cover the entire N-terminus of FLIL33. In all cases, a different CPP (TAT) is fused on the N terminus, based on the possibility that it may decrease the peptide load per cell and thus limit toxicity. […] We then proceeded to test the capacity of this peptide to deplete the levels of IL-33 in vivo and to determine whether such depletion may be protective, in the therapeutic mode, against fibrosis in the acute BLM injury model. […] Thus, peptide 2-5 fused with TAT may be a promising therapeutic agent. However, this and other peptides in this series need to be considered in detail.

IL-33 = assay: Initial cell culture screening tests of Series 2 peptides for depletion of IL-33; type: cell-based; conditions: TAT-fused Series 2 peptide, most pronounced of the series
From the text: We propose development of a new IL-33 attenuating therapy based on CPP-DP-based strategy. […] In each peptide 1-1 and 1-2, the CPP penetratin was N-terminally fused to the DP. The final sequences of peptides 1-1 and 1-2 were […] (SEQ ID NO:69) and ROIKIWFONRRMKWKKFRRETTKRPSLKTG (SEQ ID NO:70), respectively, with the CPP portion shown in italic and the DP portions underlined. Primary fibroblasts were electroporated with FLIL33-encoding and, separately, control non-coding vehicle (NULL) plasmids, and, after 24 h, the medium was replaced with added peptides 1-1 or 1-2. Based on our experience with CPP-DPs, initial concentrations of 20 μM and 40 μM were tested. After an additional 24 h, cells were lysed and the lysates were analyzed for the levels of IL-33 by ELISA. […] The most likely explanation for this effect is based on our previous experience of depleting IPOS with CRISPR-Cas9, AdV-shRNA, and siRNA technologies (Clerman et al., J Biol Chem. (2017). 292:21653-61: Kopach et al., J Biol Chem. (2014). 289:11829-43). […]
Studies in human and mouse cell cultures. […] CPP-DPs and control CPPs will be added to cell culture, and the levels of the overexpressed proteins assessed in cell lysates by ELISA as well as by WB for the HA-tag, which is attached to the C-terminus of all of these proteins.

Primary fibroblasts = assay: Cell viability / toxicity of peptides in FLIL33-overexpressing or NULL-transfected primary fibroblasts; type: cell-based; conditions: for effect on cell viability (toxicity to cells): initial concentrations of 20 μM and 40 μM, FLIL33-overexpressing or NULL-transfected fibroblasts, 24 h
From the text: as §1

[4] = vs CPP-DP10-treated and PBS-treated controls

Row | Substance | total body weight over time [1] | collagen accumulation in lung [2] | total body weight over time [2] | pulmonary levels of IL-33 (ELISA, lung homogenates) [3] | total lung collagen (QuickZyme assay) [3] | signs of toxicity (ruffled fur, hunched posture, reduced mobility, diarrhea, weight lost, tachypnea) [3] | therapeutic effect against fibrosis [3] | collagen accumulation in lung [1, 4] | pulmonary IL-33 accumulation [1, 4] | depletion of IL-33 (IL-33) | pulmonary IL-33 accumulation [2] | effect on cell viability (toxicity to cells) (Primary fibroblasts) | concentrations at which the peptide remains toxic (as low as) (Primary fibroblasts; serial dilutions) | toxicity at concentrations lower than 2.5 μM (Primary fibroblasts; serial dilutions, lower concentrations)
1 | GRKHKRHLVLAACQQQ [peptide 2-10] | not | not | closely followed the same trend | not | not | Neither of these two peptides caused any signs of toxicity | did not |  |  |  |  |  |  | 
2 | QQKAKEVCPMYFMKLR [peptide 2-5] | regained their body weight in a time-dependent fashion | significantly less collagen | quickly recovered their body weight | attenuated the levels of IL-33 | arrested deposition of collagen | Neither of these two peptides caused any signs of toxicity | encouraging therapeutic effect | significantly less collagen | significantly less | exceeding 60 % of the original levels | significantly less |  |  | 
3 | RQIKIWFQNRRMKWKKFMKLRSGLMIKKEA-NH2 [peptide 1-1] |  |  |  |  |  |  |  |  |  |  |  | highly toxic to cells | ≥ 2.5 µM | becomes non-toxic
4 | RQIKIWFQNRRMKWKKFRRETTKRPSLKTG-NH2 [peptide 1-2, ROIKIWFONRRMKWKKFRRETTKRPSLKTG] |  |  |  |  |  |  |  |  |  |  |  | no effect on cell viability |  | 
5 | SGLMIKKEACYFRRET [2-7] |  | significantly less collagen | quickly recovered their body weight |  |  |  |  |  |  |  | significantly less |  |  | 

— patent publication US20250188141A1, “DECOY PEPTIDES FOR TREATING DISEASES OR CONDITIONS MODULATED BY INTERLEUKIN-33” (University of Maryland, Baltimore, priority 2022, published 2025)
